Data as given in ChEMBL document CHEMBL1201862, “PubChem BioAssay data set” (2004).
Activity calls are given as the source filed them.

Experiments:
[1] = molecular target: T1, Bcl-2-related protein A1 (Mus musculus, UniProt Q07440); assay type: functional;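 further: confirmatory dose–response counterscreen on Bfl-1, used to check hits from a UBC13 polyubiquitin inhibitor campaign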
T1 sequence (Q07440 whole entry): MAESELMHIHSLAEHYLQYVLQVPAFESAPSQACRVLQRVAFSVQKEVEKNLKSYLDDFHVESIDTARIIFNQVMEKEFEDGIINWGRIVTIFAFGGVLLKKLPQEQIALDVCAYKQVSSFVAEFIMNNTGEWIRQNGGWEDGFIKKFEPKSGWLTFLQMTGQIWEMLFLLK

[2] = molecular target: T2, Ubiquitin-conjugating enzyme E2 N (Homo sapiens, UniProt P61088); assay type: functional
T2 sequence (P61088 whole entry): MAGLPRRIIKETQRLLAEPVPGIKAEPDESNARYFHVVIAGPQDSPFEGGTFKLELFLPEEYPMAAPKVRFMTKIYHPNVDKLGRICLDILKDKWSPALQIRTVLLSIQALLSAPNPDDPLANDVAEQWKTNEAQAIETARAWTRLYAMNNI

[3] = molecular target: T2, Ubiquitin-conjugating enzyme E2 N; assay type: functional; remark: listed apart in the source
[4] = molecular target: T3, Tyrosine-protein phosphatase non-receptor type 7 (Homo sapiens, UniProt P35236); assay type: functional
T3 sequence (P35236 whole entry): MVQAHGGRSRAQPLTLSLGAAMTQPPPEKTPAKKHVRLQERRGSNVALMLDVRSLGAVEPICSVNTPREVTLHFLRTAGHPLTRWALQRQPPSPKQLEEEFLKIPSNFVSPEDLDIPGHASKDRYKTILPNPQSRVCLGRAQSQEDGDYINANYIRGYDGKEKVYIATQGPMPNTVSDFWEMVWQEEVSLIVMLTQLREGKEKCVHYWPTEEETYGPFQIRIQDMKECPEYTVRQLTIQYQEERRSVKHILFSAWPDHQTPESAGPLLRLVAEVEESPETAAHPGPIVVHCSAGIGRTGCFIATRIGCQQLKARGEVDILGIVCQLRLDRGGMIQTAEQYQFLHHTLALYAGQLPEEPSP

[5] = molecular target: T4, Tyrosine-protein phosphatase non-receptor type 22 (Homo sapiens, UniProt Q9Y2R2); assay type: functional
T4 sequence (Q9Y2R2 whole entry): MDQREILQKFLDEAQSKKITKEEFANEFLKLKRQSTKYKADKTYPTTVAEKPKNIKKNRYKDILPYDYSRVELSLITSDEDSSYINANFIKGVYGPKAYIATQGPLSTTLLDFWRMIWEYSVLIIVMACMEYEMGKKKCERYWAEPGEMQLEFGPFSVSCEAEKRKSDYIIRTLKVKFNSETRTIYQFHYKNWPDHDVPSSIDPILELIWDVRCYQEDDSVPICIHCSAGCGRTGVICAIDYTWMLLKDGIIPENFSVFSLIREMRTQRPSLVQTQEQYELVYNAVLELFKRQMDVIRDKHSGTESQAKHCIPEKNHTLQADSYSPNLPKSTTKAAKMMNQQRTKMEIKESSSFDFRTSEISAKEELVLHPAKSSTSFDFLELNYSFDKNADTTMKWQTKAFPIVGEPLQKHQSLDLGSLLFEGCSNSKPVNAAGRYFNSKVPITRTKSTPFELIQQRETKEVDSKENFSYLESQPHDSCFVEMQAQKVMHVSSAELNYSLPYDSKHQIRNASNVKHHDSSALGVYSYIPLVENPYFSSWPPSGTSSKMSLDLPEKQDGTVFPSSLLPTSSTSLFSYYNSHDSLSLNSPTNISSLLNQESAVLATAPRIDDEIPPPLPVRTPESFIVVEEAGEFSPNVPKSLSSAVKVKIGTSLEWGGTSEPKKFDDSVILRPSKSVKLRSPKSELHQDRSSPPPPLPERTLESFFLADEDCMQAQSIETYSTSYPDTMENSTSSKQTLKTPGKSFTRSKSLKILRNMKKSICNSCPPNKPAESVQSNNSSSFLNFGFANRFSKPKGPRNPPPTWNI

[6] = molecular target: T4, Tyrosine-protein phosphatase non-receptor type 22; assay type: functional; remark: listed apart in the source
[7] = molecular target: T5, Corticotropin-releasing factor receptor 2/Corticotropin-releasing factor-binding protein (Homo sapiens, UniProt P24387+Q13324); test: activators of CRF receptor 2 with binding protein – uHTS hits, confirmation (AID 602473); assay type: functional; conditions: read-out: EC50_Mean
T5 sequence (Q13324 whole entry): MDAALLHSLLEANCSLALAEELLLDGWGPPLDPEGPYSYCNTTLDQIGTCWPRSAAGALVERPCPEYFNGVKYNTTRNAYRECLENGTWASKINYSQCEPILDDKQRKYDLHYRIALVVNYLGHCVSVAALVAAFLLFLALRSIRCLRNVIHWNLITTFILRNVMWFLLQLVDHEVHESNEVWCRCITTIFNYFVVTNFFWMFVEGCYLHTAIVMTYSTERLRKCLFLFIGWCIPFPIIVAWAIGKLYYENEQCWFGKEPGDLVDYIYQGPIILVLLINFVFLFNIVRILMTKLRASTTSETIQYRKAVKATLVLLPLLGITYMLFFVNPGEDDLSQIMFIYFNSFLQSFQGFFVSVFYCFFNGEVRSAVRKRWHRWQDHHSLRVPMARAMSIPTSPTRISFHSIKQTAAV
T5 sequence (P24387 whole entry): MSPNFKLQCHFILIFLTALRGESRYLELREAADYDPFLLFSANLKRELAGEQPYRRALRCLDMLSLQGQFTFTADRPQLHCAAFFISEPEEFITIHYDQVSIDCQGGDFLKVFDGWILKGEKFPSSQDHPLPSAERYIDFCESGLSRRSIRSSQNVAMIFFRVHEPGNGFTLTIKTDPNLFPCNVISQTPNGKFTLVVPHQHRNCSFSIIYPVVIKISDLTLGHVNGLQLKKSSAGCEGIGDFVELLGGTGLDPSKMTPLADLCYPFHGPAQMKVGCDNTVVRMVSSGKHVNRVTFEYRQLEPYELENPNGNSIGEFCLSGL

[8] = test system: HEK293; test: membrane integrity loss in HEK cells – cell-based, fluorescence, cytotoxicity control for IDE activator project, dose response (AID 588440); assay type: functional; conditions: Homo sapiens;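 further: cytotoxicity by LDH release measuring loss of membrane integrity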
[9] = molecular target: ORF 73 (Human herpesvirus 8, UniProt O40947); test: KSHV LANA DNA-binding disruption – biochemical, fluorescence polarization, cherry-picked samples, dose response (AID 504725); design: species or system Human gammaherpesvirus 8;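 further: fluorescence polarization of a labeled DNA duplex reporting LANA DNA binding; potency is for inhibitors that block LANA binding to the DNA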
ORF 73, sequence (O40947 whole entry): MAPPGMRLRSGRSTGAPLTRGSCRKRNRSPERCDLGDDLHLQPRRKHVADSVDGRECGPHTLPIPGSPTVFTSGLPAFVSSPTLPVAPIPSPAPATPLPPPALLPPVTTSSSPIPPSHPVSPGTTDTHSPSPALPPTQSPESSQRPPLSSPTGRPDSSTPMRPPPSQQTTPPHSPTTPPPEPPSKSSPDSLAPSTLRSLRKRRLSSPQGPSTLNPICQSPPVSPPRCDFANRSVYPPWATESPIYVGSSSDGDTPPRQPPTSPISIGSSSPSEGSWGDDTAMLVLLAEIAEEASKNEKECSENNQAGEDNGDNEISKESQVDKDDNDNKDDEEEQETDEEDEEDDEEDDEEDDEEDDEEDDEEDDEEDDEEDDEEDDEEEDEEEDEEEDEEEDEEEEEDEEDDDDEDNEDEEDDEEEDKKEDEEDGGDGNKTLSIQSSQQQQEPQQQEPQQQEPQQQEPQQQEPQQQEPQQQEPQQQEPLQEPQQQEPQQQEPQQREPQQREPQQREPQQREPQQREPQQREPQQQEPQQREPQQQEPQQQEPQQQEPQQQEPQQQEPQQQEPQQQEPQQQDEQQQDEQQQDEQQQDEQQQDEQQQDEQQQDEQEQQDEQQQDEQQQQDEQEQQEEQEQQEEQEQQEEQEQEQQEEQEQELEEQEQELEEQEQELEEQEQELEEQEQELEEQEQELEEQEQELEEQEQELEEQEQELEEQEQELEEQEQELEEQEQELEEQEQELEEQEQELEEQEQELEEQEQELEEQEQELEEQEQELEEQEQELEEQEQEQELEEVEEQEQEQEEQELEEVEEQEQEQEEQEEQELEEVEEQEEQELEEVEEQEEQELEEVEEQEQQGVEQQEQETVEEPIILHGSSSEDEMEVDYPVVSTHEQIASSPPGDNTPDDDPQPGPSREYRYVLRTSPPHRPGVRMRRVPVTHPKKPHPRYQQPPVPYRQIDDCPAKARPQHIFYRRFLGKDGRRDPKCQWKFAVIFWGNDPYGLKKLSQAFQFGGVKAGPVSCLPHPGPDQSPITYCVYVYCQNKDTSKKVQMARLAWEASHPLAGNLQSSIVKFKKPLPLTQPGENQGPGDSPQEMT

[10] = molecular target: Beta-lactamase (Salmonella choleraesuis (strain SC-B67), UniProt Q5J463)
Beta-lactamase (Salmonella choleraesuis (strain SC-B67), UniProt Q5J463), sequence (Q5J463 whole entry): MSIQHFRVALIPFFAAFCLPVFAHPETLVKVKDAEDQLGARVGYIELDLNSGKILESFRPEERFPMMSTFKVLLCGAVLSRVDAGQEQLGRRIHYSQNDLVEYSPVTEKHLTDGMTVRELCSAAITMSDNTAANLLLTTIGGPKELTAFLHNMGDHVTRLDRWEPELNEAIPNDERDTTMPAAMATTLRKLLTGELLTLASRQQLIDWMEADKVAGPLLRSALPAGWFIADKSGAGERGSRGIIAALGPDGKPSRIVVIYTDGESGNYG

[11] = molecular target: Beta-lactamase (Pseudomonas aeruginosa, UniProt Q79MP6);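 further: biochemical dose-response test of metallo-beta-lactamase enzyme inhibition, read out by epi-absorbance; purified recombinant IMP-1 metallo-beta-lactamase with nitrocefin as substrate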
Beta-lactamase (Pseudomonas aeruginosa, UniProt Q79MP6), sequence (Q79MP6 whole entry): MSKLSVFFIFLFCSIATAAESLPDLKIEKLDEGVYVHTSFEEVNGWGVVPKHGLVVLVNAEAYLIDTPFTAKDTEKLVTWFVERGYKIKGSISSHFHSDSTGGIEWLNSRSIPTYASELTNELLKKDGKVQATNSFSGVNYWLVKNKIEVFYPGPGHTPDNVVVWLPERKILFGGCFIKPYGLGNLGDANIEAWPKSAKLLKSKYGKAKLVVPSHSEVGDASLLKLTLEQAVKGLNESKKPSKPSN

[12] = test system: HEK293; test: optical interference in Abeta FP readout, dose response, artefact control for IDE activator project, biochemical, fluorescence polarization (AID 588442); assay type: functional, cell-based; conditions: Homo sapiens
[13] = molecular target: T6, Insulin-degrading enzyme (Homo sapiens, UniProt P14735); test: recombinant IDE activation, cell-free – biochemical, fluorescence polarization, counter-screen for IDE activator project, dose response (AID 588681)
T6 sequence (P14735 whole entry): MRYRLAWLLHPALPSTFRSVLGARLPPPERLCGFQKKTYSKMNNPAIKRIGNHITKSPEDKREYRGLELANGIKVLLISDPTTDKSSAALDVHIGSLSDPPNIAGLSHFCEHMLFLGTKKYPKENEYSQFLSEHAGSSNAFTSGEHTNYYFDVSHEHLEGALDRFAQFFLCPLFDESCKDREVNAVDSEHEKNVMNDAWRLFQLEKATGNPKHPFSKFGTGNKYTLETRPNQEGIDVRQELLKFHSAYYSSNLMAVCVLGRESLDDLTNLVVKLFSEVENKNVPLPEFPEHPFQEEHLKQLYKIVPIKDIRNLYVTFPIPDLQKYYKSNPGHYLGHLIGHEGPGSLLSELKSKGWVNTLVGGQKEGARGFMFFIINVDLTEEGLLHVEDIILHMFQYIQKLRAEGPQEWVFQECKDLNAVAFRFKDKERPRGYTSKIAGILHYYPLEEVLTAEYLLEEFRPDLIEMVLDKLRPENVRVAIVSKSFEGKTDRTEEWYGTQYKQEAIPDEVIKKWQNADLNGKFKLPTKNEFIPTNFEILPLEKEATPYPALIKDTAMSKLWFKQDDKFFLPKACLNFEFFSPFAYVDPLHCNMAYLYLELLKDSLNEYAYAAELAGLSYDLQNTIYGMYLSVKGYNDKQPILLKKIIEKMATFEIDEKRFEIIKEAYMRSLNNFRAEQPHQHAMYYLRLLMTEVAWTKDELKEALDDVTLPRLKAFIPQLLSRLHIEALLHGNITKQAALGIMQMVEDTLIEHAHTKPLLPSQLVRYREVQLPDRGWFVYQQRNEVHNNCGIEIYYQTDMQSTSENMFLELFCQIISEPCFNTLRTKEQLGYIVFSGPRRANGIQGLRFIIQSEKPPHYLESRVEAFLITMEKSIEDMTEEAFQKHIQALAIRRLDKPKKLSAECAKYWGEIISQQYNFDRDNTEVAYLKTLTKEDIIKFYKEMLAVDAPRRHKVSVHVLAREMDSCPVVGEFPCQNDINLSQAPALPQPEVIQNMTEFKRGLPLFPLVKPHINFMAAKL

[14] = molecular target: T6, Insulin-degrading enzyme; test: cellular IDE activation of Abeta substrate cleavage – fluorescence polarization, HEK cells, dose response (AID 588439); assay type: functional, cell-based
[15] = molecular target: Troponin, cardiac muscle (Homo sapiens, UniProt P19429+P45379+P63316); test: Fluorescence-based biochemical high throughput dose response assay for activators of the calcium sensitivity of cardiac Regulated Thin Filaments (RTF). [Related pubchem assays (depositor defined):AID493008, AID493018, AID504382, AID504383]; assay type: protein-complex assay
[16] = compound autofluorescence in calcium buffer – biochemical, fluorescence, no RTF in test wells, artefact control for cardiac thin filament activator project, dose response (AID 504697)
[17] = molecular target: Protein-arginine deiminase type-4 (Homo sapiens, UniProt Q9UM07); test: IC50 against protein arginine deiminase 4 – biochemical, fluorescence readout, dose response (AID 492970)
Protein-arginine deiminase type-4, sequence (Q9UM07 whole entry): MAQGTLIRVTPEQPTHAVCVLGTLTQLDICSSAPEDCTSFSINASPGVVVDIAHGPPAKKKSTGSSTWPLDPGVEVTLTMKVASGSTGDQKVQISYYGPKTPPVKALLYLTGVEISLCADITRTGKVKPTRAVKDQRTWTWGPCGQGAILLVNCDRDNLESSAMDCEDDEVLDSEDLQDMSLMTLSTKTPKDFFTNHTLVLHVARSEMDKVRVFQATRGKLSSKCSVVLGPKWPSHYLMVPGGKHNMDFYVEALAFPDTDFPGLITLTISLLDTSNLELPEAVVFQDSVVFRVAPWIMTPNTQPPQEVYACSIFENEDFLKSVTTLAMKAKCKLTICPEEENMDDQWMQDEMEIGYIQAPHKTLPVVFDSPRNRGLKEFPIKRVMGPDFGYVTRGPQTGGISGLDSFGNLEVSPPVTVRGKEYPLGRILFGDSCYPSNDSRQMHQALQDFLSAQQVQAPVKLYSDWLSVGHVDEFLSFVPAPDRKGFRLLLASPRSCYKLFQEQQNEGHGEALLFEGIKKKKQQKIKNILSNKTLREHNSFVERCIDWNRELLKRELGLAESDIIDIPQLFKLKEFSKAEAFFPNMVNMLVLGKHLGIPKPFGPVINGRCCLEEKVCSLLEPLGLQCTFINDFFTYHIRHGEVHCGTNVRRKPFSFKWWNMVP

Cc1ccc(NC(=O)C2CCN(c3ncnc4c3nc3n4CCCCC3)CC2)cc1Cl
IC50 [1]: > 20 µM (inactive)
IC50 [2]: 16 µM (active)
IC50 [3]: 6.92 µM (active)

c1ccc2c(CN3CCCCC3)csc2c1
IC50 [4]: > 79.4 µM (inactive)
IC50 [5]: > 79.4 µM (inactive)
IC50 [6]: > 79.4 µM (inactive)
EC50 [7]: 14.6 µM (active)

CN(C)/C=C1\C=C2C(=O)c3ccccc3N2C1=O
IC50 [8]: > 89.2 µM (inactive)
AC50 [9]: 0.051 µM (active)
IC50 [10]: 0.372 µM (active)
IC50 [11]: 1.02 µM (active)
EC50 [12]: > 54.7 µM (inactive)
EC50 [13]: > 54.7 µM (inactive)
EC50 [14]: > 54.7 µM (inactive)
EC50 [15]: > 0.0109 µM (active)
EC50 [16]: > 0.0327 µM (active)

NNC(=O)/C(=C\c1ccco1)NC(=O)c1ccccc1
IC50 [17]: > 100 µM (inactive)
